In brackets after ≈: the same amount, converted by molar mass.
Key:
Staphylococcus aureus [1] = test: Antibacterial activity against methicillin-resistant Staphylococcus aureus CMAH 0515 after 24 hrs by two fold dilution method; assay type: functional
Proteus vulgaris = test: Antimicrobial activity against Proteus vulgaris CMCC(B) 49001 after 24 hrs by two fold dilution method; assay type: functional
Klebsiella aerogenes = test: Antibacterial activity against Enterobacter aerogenes CMCC(B) 45103 after 24 hrs by two fold dilution method; assay type: functional
Micrococcus luteus = test: Antimicrobial activity against Micrococcus luteus CMCC(B) 28001 after 24 hrs by two fold dilution method; assay type: functional
Staphylococcus aureus [2] = test: Antibacterial activity against methicillin-susceptible Staphylococcus aureus ATCC 25923 after 24 hrs by two fold dilution method; assay type: functional; details: ATCC 25923, 24 h
Bacillus subtilis = test: Antimicrobial activity against Bacillus subtilis after 24 hrs by two fold dilution method; assay type: functional
Staphylococcus aureus [3] = test: Antibacterial activity against methicillin-resistant Staphylococcus aureus CMAH 0504 after 24 hrs by two fold dilution method; assay type: functional
Candida albicans [4] = test: Antifungal activity against Candida albicans CMAH 0501 after 48 to 72 hrs by broth microdilution method; assay type: functional
Staphylococcus aureus [5] = test: Antibacterial activity against methicillin-resistant Staphylococcus aureus CMAH 0430 after 24 hrs by two fold dilution method; assay type: functional
Escherichia coli = test: Antimicrobial activity against Escherichia coli ATCC 25922 after 24 hrs by two fold dilution method; assay type: functional; details: ATCC 25922, 24 h
Pseudomonas aeruginosa = test: Antimicrobial activity against Pseudomonas aeruginosa ATCC 27853 after 24 hrs by two fold dilution method; assay type: functional; details: ATCC 27853, 24 h
[6] = Toxicity in human erythrocytes assessed as haemolysis upto 4000 ug/mL; assay type: cell-based, Erythrocyte; details: read-out: Activity
Cryptococcus neoformans = test: Antifungal activity against Cryptococcus neoformans ATCC 90112 after 48 to 72 hrs by broth microdilution method; assay type: functional
Candida albicans [7] = test: Antifungal activity against Candida albicans CMAM 0577 after 48 to 72 hrs by broth microdilution method; assay type: functional
Candida albicans [8] = test: Antifungal activity against Candida albicans CMAH 0511 after 48 to 72 hrs by broth microdilution method; assay type: functional
Candida albicans [9] = test: Antifungal activity against Candida albicans CMAM 0594 after 48 to 72 hrs by broth microdilution method; assay type: functional
Candida albicans [10] = test: Antifungal activity against Candida albicans CMAH 0572 after 48 to 72 hrs by broth microdilution method; assay type: functional
Candida albicans [11] = test: Antifungal activity against Candida albicans ATCC 10231 after 48 to 72 hrs by broth microdilution method; assay type: functional
Candida albicans [12] = test: Antifungal activity against Candida albicans CMAH 0527 after 48 to 72 hrs by broth microdilution method; assay type: functional
Candida albicans [13] = test: Antifungal activity against fluconazole-resistant Candida albicans CMAM 0597 after 48 to 72 hrs by broth microdilution method; assay type: functional
Candida albicans [14] = test: Antifungal activity against Candida albicans CMAM 0592 after 48 to 72 hrs by broth microdilution method; assay type: functional
Candida albicans [15] = test: Antifungal activity against fluconazole-resistant Candida albicans CMAH 0520 after 48 to 72 hrs by broth microdilution method; assay type: functional
Saccharomyces cerevisiae = test: Antimicrobial activity against Saccharomyces cerevisiae after 48 to 72 hrs by broth microdilution method; assay type: functional
Candida albicans [16] = test: Antifungal activity against Candida albicans CMAH 0507 after 48 to 72 hrs by broth microdilution method; assay type: functional
Candida albicans [17] = test: Antifungal activity against Candida albicans CMAH 0503 after 48 to 72 hrs by broth microdilution method; assay type: functional
Aspergillus sp. = test: Antifungal activity against Aspergillus sp. after 48 to 72 hrs by broth microdilution method; assay type: functional; details: Aspergillus sp.
Rhodotorula glutinis = test: Antimicrobial activity against Rhodotorula glutinis SYM 2209 after 48 to 72 hrs by broth microdilution method; assay type: functional

CC1(C)S[C@@H]2[C@H](NC(=O)[C@H](N)c3ccccc3)C(=O)N2[C@H]1C(=O)O [AMPICILLIN]
MIC (Staphylococcus aureus [1]): > 64 µg/mL
MBC (Proteus vulgaris): 0.5 µg/mL (≈ 1.43 µM)
MIC (Proteus vulgaris): 0.3 µg/mL (≈ 0.859 µM)
MIC (Klebsiella aerogenes): > 64 µg/mL
MBC (Micrococcus luteus): 0.5 µg/mL (≈ 1.43 µM)
MIC (Micrococcus luteus): 0.3 µg/mL (≈ 0.859 µM)
MBC (Staphylococcus aureus [2]): 0.5 µg/mL (≈ 1.43 µM)
MIC (Staphylococcus aureus [2]): 0.25 µg/mL (≈ 0.715 µM)
MBC (Bacillus subtilis): 0.25 µg/mL (≈ 0.715 µM)
MIC (Bacillus subtilis): 0.3 µg/mL (≈ 0.859 µM)
MIC (Staphylococcus aureus [3]): > 64 µg/mL
MFC (Candida albicans [4]): 128 µg/mL (≈ 366 µM)
MIC (Candida albicans [4]): 32 µg/mL (≈ 91.6 µM)
MIC (Staphylococcus aureus [5]): > 64 µg/mL
MBC (Escherichia coli): 64 µg/mL (≈ 183 µM)
MIC (Escherichia coli): 32 µg/mL (≈ 91.6 µM)
MIC (Pseudomonas aeruginosa): > 64 µg/mL

O=C(N[C@H](CO)[C@H](O)c1ccc([N+](=O)[O-])cc1)C(Cl)Cl [CHLORAMPHENICOL]
MBC (Staphylococcus aureus [1]): 4 µg/mL (≈ 12.4 µM)
MIC (Staphylococcus aureus [1]): 2 µg/mL (≈ 6.19 µM)
MBC (Proteus vulgaris): 0.25 µg/mL (≈ 0.774 µM)
MIC (Proteus vulgaris): 0.25 µg/mL (≈ 0.774 µM)
MBC (Klebsiella aerogenes): 2 µg/mL (≈ 6.19 µM)
MIC (Klebsiella aerogenes): 2 µg/mL (≈ 6.19 µM)
MBC (Micrococcus luteus): 4 µg/mL (≈ 12.4 µM)
MIC (Micrococcus luteus): 2 µg/mL (≈ 6.19 µM)
MBC (Staphylococcus aureus [2]): 1 µg/mL (≈ 3.09 µM)
MIC (Staphylococcus aureus [2]): 1 µg/mL (≈ 3.09 µM)
hemolysis [6]: 14%
MBC (Bacillus subtilis): 2 µg/mL (≈ 6.19 µM)
MIC (Bacillus subtilis): 2 µg/mL (≈ 6.19 µM)
MBC (Staphylococcus aureus [3]): 2 µg/mL (≈ 6.19 µM)
MIC (Staphylococcus aureus [3]): 2 µg/mL (≈ 6.19 µM)
MBC (Staphylococcus aureus [5]): 2 µg/mL (≈ 6.19 µM)
MIC (Staphylococcus aureus [5]): 1 µg/mL (≈ 3.09 µM)
MBC (Escherichia coli): 4 µg/mL (≈ 12.4 µM)
MIC (Escherichia coli): 2 µg/mL (≈ 6.19 µM)
MBC (Pseudomonas aeruginosa): 64 µg/mL (≈ 198 µM)
MIC (Pseudomonas aeruginosa): 32 µg/mL (≈ 99 µM)

OC(Cn1cncn1)(Cn1cncn1)c1ccc(F)cc1F [FLUCONAZOLE]
MIC (Cryptococcus neoformans): 16 µg/mL (≈ 52.2 µM)
MIC (Candida albicans [7]): 64 µg/mL (≈ 209 µM)
MIC (Candida albicans [8]): 16 µg/mL (≈ 52.2 µM)
MIC (Candida albicans [9]): 64 µg/mL (≈ 209 µM)
MIC (Candida albicans [10]): 64 µg/mL (≈ 209 µM)
MIC (Candida albicans [11]): 8 µg/mL (≈ 26.1 µM)
MIC (Candida albicans [12]): 64 µg/mL (≈ 209 µM)
MIC (Candida albicans [13]): > 64 µg/mL
MIC (Candida albicans [14]): 32 µg/mL (≈ 104 µM)
MIC (Candida albicans [4]): 16 µg/mL (≈ 52.2 µM)
MIC (Candida albicans [15]): > 64 µg/mL
MIC (Saccharomyces cerevisiae): 4 µg/mL (≈ 13.1 µM)
MIC (Candida albicans [16]): 64 µg/mL (≈ 209 µM)
MIC (Candida albicans [17]): 32 µg/mL (≈ 104 µM)
MIC (Aspergillus sp.): > 64 µg/mL
MIC50 (Aspergillus sp.): > 64 µg/mL
MIC90 (Aspergillus sp.): > 64 µg/mL
MIC (Rhodotorula glutinis): > 64 µg/mL

NC[C@H]1O[C@H](O[C@H]2[C@H](O)[C@@H](O[C@H]3O[C@H](CO)[C@@H](O)[C@H](N)[C@H]3O)[C@H](N)C[C@@H]2N)[C@H](O)[C@@H](O)[C@@H]1O [KANAMYCIN]
MIC (Staphylococcus aureus [1]): > 64 µg/mL
MBC (Proteus vulgaris): 0.5 µg/mL (≈ 1.03 µM)
MIC (Proteus vulgaris): 0.25 µg/mL (≈ 0.516 µM)
MBC (Klebsiella aerogenes): 0.25 µg/mL (≈ 0.516 µM)
MIC (Klebsiella aerogenes): 0.25 µg/mL (≈ 0.516 µM)
MBC (Micrococcus luteus): 0.25 µg/mL (≈ 0.516 µM)
MIC (Micrococcus luteus): 0.25 µg/mL (≈ 0.516 µM)
MBC (Staphylococcus aureus [2]): 0.5 µg/mL (≈ 1.03 µM)
MIC (Staphylococcus aureus [2]): 0.25 µg/mL (≈ 0.516 µM)
MBC (Bacillus subtilis): 4 µg/mL (≈ 8.26 µM)
MIC (Bacillus subtilis): 4 µg/mL (≈ 8.26 µM)
MIC (Staphylococcus aureus [3]): > 64 µg/mL
MIC (Staphylococcus aureus [5]): > 64 µg/mL
MBC (Escherichia coli): 0.25 µg/mL (≈ 0.516 µM)
MIC (Escherichia coli): 0.25 µg/mL (≈ 0.516 µM)
MBC (Pseudomonas aeruginosa): > 128 µg/mL
MIC (Pseudomonas aeruginosa): 64 µg/mL (≈ 132 µM)

Reference: ChEMBL document CHEMBL1147026, “Synthesis of pseudopeptides based L-tryptophan as a potential antimicrobial agent” (Bioorg Med Chem Lett, 2007)
